# Source: patent US20120100130A1, “Novel Receptor Hetero-Dimers/-Oligomers” (DIMERIX BIOSCIENCE PTY LTD., priority 2009, published 2012)
# Columns and labels:
# [1] = molecular target: T1, AT2R (Homo sapiens, UniProt P50052); test: eBRET control, cells expressing AT2R/Rluc8 and barr2/Venus with pcDNA3; type: cell-based; settings: 10^−7M MCP1; HEK293FT cells expressing AT2R/Rluc8 and barr2/Venus with pcDNA3
# T1 construct: expressed in transfected cells; host or cells: HEK293FT
# T1 sequence (P50052 1-363): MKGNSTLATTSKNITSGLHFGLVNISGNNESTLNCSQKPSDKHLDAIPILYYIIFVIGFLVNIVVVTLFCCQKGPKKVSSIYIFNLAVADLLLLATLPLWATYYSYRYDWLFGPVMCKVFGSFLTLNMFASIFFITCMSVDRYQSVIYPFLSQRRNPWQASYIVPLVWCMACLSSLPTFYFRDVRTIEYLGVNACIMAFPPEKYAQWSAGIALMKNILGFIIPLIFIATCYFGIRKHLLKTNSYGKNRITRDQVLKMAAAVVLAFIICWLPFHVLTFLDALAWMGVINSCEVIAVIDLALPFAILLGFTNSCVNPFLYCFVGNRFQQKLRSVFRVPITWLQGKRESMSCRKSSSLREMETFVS
# Description: (§1) HEK293FT cells were seeded in 6-well plates at a density of approximately 630,000 cells/well and maintained at 37° C., 5% CO2 in Complete Media (DMEM containing 0.3 mg/ml glutamine, 100 IU/ml penicillin and 100 μg/ml streptomycin (Gibco)) supplemented with 10% fetal calf serum (FCS; Gibco). Transient transfections were carried out 24 h after seeding using GeneJuice (Novagen) according to manufacturer instructions. 24 h post-transfection, cells were washed with PBS, detached using 0.05% trypsin/0.53 mM EDTA, resuspended in HEPES-buffered phenol red free Complete Media containing 5% FCS and added to a poly-L-lysine-coated white 96-well microplate (Nunc). 48 h post-transfection, eBRET assays were carried out following pre-incubation of cells with EnduRen™ (Promega) at a final concentration of 30 μM, at 37° C., 5% CO2 for 2 h. BRET measurements were taken at 37° C. using the Victor Light plate reader with Wallac 1420 software (Perkin-Elmer). Filtered light emissions were sequentially measured for 2 s in each of the ‘donor wavelength window’ (400-475 nm) and ‘acceptor wavelength window’ (520-540 nm).
# The BRET signal observed between interacting proteins is normalized by subtracting the background BRET ratio. […] In the following examples, the second calculation will be used and the signal is described as the ‘ligand-induced BRET ratio’.
# [2] = molecular target: T2, AT1R (Homo sapiens, UniProt P30556); test: eBRET control, cells expressing AT1R/Rluc8 and barr2/Venus with pcDNA3; type: cell-based; settings: 10^−7M MCP1; HEK293FT cells expressing AT1R/Rluc8 and barr2/Venus with pcDNA3
# T2 construct: expressed in transfected cells; host or cells: HEK293FT
# T2 sequence (P30556 1-359): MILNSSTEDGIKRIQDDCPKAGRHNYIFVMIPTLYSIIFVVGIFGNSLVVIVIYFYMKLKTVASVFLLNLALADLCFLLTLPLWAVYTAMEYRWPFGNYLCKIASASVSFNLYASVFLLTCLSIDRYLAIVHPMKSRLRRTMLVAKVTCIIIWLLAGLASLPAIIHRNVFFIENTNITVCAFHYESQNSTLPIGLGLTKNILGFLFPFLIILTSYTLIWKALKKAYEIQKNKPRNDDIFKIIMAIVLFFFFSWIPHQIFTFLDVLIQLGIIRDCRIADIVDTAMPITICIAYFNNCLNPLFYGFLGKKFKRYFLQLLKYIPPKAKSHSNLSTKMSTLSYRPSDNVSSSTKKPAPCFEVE
# Description: as §1
# The BRET signal observed between interacting proteins is normalized by subtracting the background BRET ratio. […]
# In parallel, eBRET signals were measured from cells transiently expressing AT1R/Rluc8 and barr2/Venus with pcDNA3 following treatment with 10^−7M monocyte chemotactic protein-1 (MCP1).
# [3] = molecular target: T3, CCR2b (Rattus norvegicus, UniProt O55193); settings: AngII and high salt diet, cited from earlier work
# T3 construct: host or cells: whole animals (in vivo)
# T3 sequence (O55193 1-373): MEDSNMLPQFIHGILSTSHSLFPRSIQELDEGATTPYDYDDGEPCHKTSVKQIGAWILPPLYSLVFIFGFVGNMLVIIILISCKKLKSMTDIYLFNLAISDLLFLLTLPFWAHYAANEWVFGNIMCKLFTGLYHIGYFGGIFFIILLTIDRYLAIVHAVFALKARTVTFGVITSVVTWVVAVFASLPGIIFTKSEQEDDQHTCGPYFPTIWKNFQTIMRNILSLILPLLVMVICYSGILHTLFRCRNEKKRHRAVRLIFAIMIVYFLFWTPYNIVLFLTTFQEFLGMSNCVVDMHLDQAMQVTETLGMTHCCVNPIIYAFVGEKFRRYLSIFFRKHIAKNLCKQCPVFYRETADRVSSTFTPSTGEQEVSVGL
# [4] = test system: AT1R; settings: apolipoprotein E-deficient mice, cited from earlier work
# [5] = test system: leukocyte infiltration; settings: intraperitoneal AngII administration; cited from earlier work
# [6] = test system: AngII treated monocytes; settings: cited from earlier work
# [7] = test system: renal cells and monocytes; settings: cited from earlier work
# [8] = test system: glomerular endothelial cells; settings: AngII treatment, rat glomerular endothelial cells; cited from earlier work
# [9] = test system: renal tissue; settings: rats, 3 days of AngII treatment; cited from earlier work
molecule,measurement,setting,value
monocyte chemotactic protein-1 [MCP1],ligand-induced BRET ratio,[1],did not result in an increase in ligand-induced BRET ratio
same,ligand-induced BRET ratio,[2],did not result in an increase in ligand-induced BRET ratio
O=C1Nc2ccccc2C2(CCN(CCc3ccc(C(F)(F)F)cc3)CC2)O1 [RS102895],BP,[3]; with versus without CCR2b antagonist,comparable
same,renal protection in hypertension,[3],protects the kidney in hypertension by reducing the inflammatory response
CCCCC1=NC2(CCCC2)C(=O)N1Cc1ccc(-c2ccccc2-c2nnn[nH]2)cc1 [irbesartan],lesion size,[4]; after 12 weeks,reduced
same,levels of MCP-1 and MIP-1α mRNA expression,[4],significantly lower
CCCCc1nc(Cl)c(CO)n1Cc1ccc(-c2ccccc2-c2nn[nH]n2)cc1 [Losartan],Leukocyte infiltration,[5],inhibited
same,AngII-mediated upregulation of MIP-1 and interleukin-8 chemokines,[6],inhibited
C[C@H](N[C@@H](CCc1ccccc1)C(=O)O)C(=O)N1[C@H](C(=O)O)C[C@@H]2CCC[C@@H]21 [Ramiprilat],AngII-induced upregulation of MIP-1,[6],suppressed
"angiotensin III (RVYIHPF; Angiotensin-3; UniProt P01019 26-32, looked up) [AngIII]",MCP-1 mRNA and protein expression,[7]; AngIII treatment of renal cells and monocytes,increase
same,transcription factor NF-κB,[7]; AngIII treatment,activated
"angiotensin II (DRVYIHPF; Angiotensin-2; UniProt P01019 25-32, looked up) [AngII]",CC and CXC chemokine levels,[5],increase
same,mRNA and protein expression of the chemokine RANTES,[8],increase
same,renal expression of TNFα and MCP-1,[9],increased
